According to patent US20050032708A1, “Modulation of physiological processes and agents useful for same” (priority 2001, published 2005):
Entries after “also recorded” stand apart in the source; their conditions may differ.

Key:
[1] = cited from earlier work
[2] = Body weights and daily water consumption of rats receiving NAC in drinking water for 14 days; assay type: in vivo
Description: (§1) Male Sprague Dawley rats (380-430 g) were obtained from Department of Pathology, University of Melbourne. On arrival rats were housed in pairs in a temperature-controlled (20-24° C.) colony room maintained on a 12 hr light-dark cycle (6 am-6 pm). Rats had continuous access to food and water (plain or treated) and were weighed on arrival and then daily from onset of experiment. Rats were allowed to adjust to the new environment for 3 days before starting the experiment.
(§2) This experiment consisted of 24 rats in total. Eight rats received plain drinking water (controls), 8 rats received 0.5% NAC (Sigma) in their drinking water (low dose) and 8 rats received 2% NAC in their drinking water (high dose). Drug treatment was administered for 14 consecutive days. Bottles were cleaned and fresh drug solution was made up on days 4, 8 and 11. Body weights and amount of drinking water consumed per box were measured on a daily basis. After 7 days of drug treatment, behavioural testing began and continued until day 14 of treatment.

[3] = tested on: Male Sprague Dawley rats; test: Effect of amphetamine on locomotor activity of rats receiving NAC in drinking water; assay type: in vivo
Description: as §1, §2
Locomotor activity was assessed in 8 automated photo cell cages, data being collected in 5-min intervals. Animals were placed individually in cages and baseline activity was measured during the first 30 minutes. After 30 minutes rats received a subcutaneous injection of either saline (vehicle), 0.5 mg/kg or 5 mg/kg amphetamine and locomotor activity was measured for a further 90 minutes. Drug treatment and time of day of the experiment were both randomised (see table 1). Each rat received 3 locomotor sessions in total. A period of 3 days was allowed between locomotor experiments to ensure complete elimination of amphetamine.
Locomotor hyperactivity was obtained as total distance moved per 30 min, i.e. before injection and 0-30 min, 30-60 min and 60-90 min after injection. In order to account for slight variations in baseline activity, post-injection behaviour was expressed a change of baseline activity. Average data for rats receiving water, 0.5% NAC, or 2% NAC was compared using analysis of variance for repeated measures (ANOVA) using the Systat 9.0 software package.

[4] = tested on: humans; conditions: cited from earlier work
[5] = 600-1200 mg/day for three weeks, Ziegler and Gries, 1997

O=C(O)CCCCC1CCSS1 (stereo not drawn) [Alpha-lipoic Acid]
Symptoms of diabetic neuropathy [1, 5]: reproducibly demonstrated benefit | Tolerability [1, 5]: tolerated with no adverse effects

CC(=O)N[C@@H](CS)C(=O)O [NAC, N-acetyl cysteine]
Average daily water consumption per box ([2]; 0.5% NAC in drinking water (low dose), 14 days of treatment, control rats 77-90 ml): 60 to 72 mL | Body weight over the treatment period compared with controls ([2]; 2% NAC in drinking water (high dose), 14 days): marked decrease in body weight | Interaction of treatment x time, 5 mg/kg of amphetamine, vs controls (significant or not) ([3]; 0.5% NAC): not | Overall effect of 0.5 mg/kg of amphetamine on locomotor activity vs water controls ([3]; 0.5% NAC in drinking water, F(1,14)=5.11, P=0.04): tended to be greater | Baseline locomotor activity before injection, averaged over three sessions, vs water controls ([3]; 0.5% or 2% NAC in drinking water, difference did not reach statistical significance): tended to be lower | Duration of locomotor hyperactivity after 5 mg/kg of amphetamine ([3]; 2% NAC): maintained longer than in controls; also recorded: prolonged effect | Overall effect of 0.5 mg/kg of amphetamine on locomotor activity vs water controls ([3]; 2% NAC in drinking water, F(1,13)=4.3, P=0.06): tended to be greater | Overall effect of 5 mg/kg of amphetamine on locomotor activity vs controls ([3]; 2% NAC to drink, failed to reach overall statistical significance): tended to be greater | Interaction of treatment x time, 5 mg/kg of amphetamine, vs controls ([3]; 2% NAC, F(2,28)=4.9, P=0.024): significant | Maximal effect of 0.5 mg/kg of amphetamine on locomotor activity vs water controls ([3]; 30-60 min after injection, either NAC dose (0.5% or 2%), 0.5 mg/kg): significantly greater; also recorded: greater maximal effect | Plasma cystine levels ([4]; dose of 3 g/day (4 capsules, 2 bid)): sustains elevated plasma cystine levels | Human dosing without adverse effects ([4]; human, Louwerse et al., 1995): up to 5 g/day

C[Se]CC[C@H](N)C(=O)O [Selenomethionione]
Adverse effects of long-term dose ([1]; 200 ug, one per day): no known adverse effects

O=C1O[C@H]([C@@H](O)CO)C(O)=C1O [Vitamin C]
Elevation of plasma levels ([1]; 500 mg daily): 60%

Cc1c(C)c2c(c(C)c1O)CC[C@@](C)(CCC[C@H](C)CCC[C@H](C)CCCC(C)C)O2 [alpha-tocopherol]
Adverse effects ([1]; 400 IU): without causing adverse effects | CSF levels ([1]; 400 IU): sufficient to increase CSF levels | Doses that may cause coagulopathies and can be a source of radicals ([1]; Bowry et al., 1995): higher than 2000 IU/day

CC(N)Cc1ccccc1 (stereo not drawn) [amphetamine]
Locomotor activity after subcutaneous injection of amphetamine ([3]; 0.5 mg/kg of amphetamine, 90 min after injection): induced a behavioural hyperactivity | Locomotor activity after subcutaneous injection of amphetamine ([3]; 5 mg/kg of amphetamine, activity fell to low levels later in the 90 min observation period): initially induced marked behavioural hyperactivity
